For nine compounds, TGI results are on record in PubChem BioAssay (NCI).

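Five compound concentrations were applied to cells in 96-well plates for 48 hours; endpoints were derived by simple linear interpolation of the resulting dose-response curve. The concentration for full growth arrest is given as TGI.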

Experiment in all cases: inhibition of tumour cell growth, NCI panel, 48 h
For assay [1], the system named is 786-0 renal.
The subject of assay [2] is BT-549 breast.
In assay [3] the test system is EKVX NSCLC.
The subject of assay [4] is HCT-116 colon.
The subject of assay [5] is HL-60(TB) leukemia.
Assay [6] concerns HT29 colon.
The test system of assay [7] is MCF7 breast.
Assay [8] deals with NCI-H23 lung.
In assay [9] the test system is OVCAR-3 ovarian.
The subject of assay [10] is OVCAR-4 ovarian.
The subject of assay [11] is OVCAR-8 ovarian.
The test system of assay [12] is RPMI-8226 leukemia.
The subject of assay [13] is SF-268 CNS.
In assay [14] the test system is SNB-19 CNS.
Assay [15] concerns U251 CNS.
For assay [16], the system named is UACC-62 melanoma.

`CC(C)=CCC[C@@H](C)C1=C(O)C(Nc2ccccc2I)=C(C)C(=O)C1=O`: the TGI was over 58.7 µM in [1]; over 75 µM in assay [2]; over 75 µM in [3]; 34.8 µM in assay [4]; 4.39 µM in assay [5]; 28 µM in [6]. For the same compound, the TGI in assay [7] was over 75 µM; in [8], 38.9 µM; in assay [9] it was over 47.5 µM; in assay [10], over 75 µM; in assay [11] it was over 32.2 µM; in assay [12], over 36.8 µM. In addition, the TGI in assay [13] is over 69.3 µM; in assay [14], over 75 µM; in assay [15], over 75 µM; in assay [16], 31.3 µM.
On to `Cc1c2cccc-2ccc2c3ccccc3n(C(=O)c3ccc(Cl)cc3)c12`, for which the TGI in assay [1], in assay [2], in [3], in [4], in assay [5] and in assay [6] was over 100 µM throughout. Besides, the TGI in assay [7], in assay [8], in assay [9], in assay [10], in assay [11] and in assay [12] was over 100 µM each time. The TGI in assay [13], in [14], in assay [15] and in assay [16] was over 100 µM each time.
For the compound `OC(NN=C1CCCC1)(C(F)(F)Cl)C(F)(F)Cl`, the TGI in assay [1], in assay [2], in assay [3], in [4], in [5] and in assay [6] was over 10 µM each time. In addition, the TGI in [7], in assay [8], in assay [9], in assay [10], in [11] and in assay [12] was over 10 µM throughout. The TGI in assay [13], in assay [14], in [15] and in assay [16] was over 10 µM each time.
With `C[C@H](C1CC2(C)OC2(C)C(=O)O1)[C@H]1CC[C@H]2[C@@H]3[C@@H]4O[C@@H]4[C@@]4(O)CC=CC(=O)[C@]4(C)[C@H]3CC[C@]12C` (stereo not given in full), the TGI in assay [1], in [2], in assay [3], in assay [4], in assay [5] and in assay [6] was over 50 µM each time. Further, the TGI in assay [7], in assay [8], in assay [9], in assay [10], in [11] and in [12] was over 50 µM each time. The TGI in assay [13], in [14], in [15] and in assay [16] was over 50 µM each time.
On to `COC(=O)Cn1cnc2c(Cl)nc(Nc3ccccc3)nc21`, for which the TGI in assay [1] was over 100 µM; in [2], over 100 µM; in assay [3] it was 88 µM; in [4] it was over 100 µM; in assay [5], over 100 µM; in [6] it was over 100 µM. In addition, the TGI in assay [7] is over 100 µM; in [9], 50.7 µM; in [10] it was over 100 µM; in assay [11], 66.7 µM; in [12], over 100 µM; in assay [14] it was over 100 µM. For the same compound, the TGI in assay [15] was over 100 µM; in assay [16] it was 67.2 µM.
On to `Cc1ccc(S(=O)(=O)NC(=O)C2=C3SCCN3C(=O)N(S(=O)(=O)c3ccc(C)cc3)C2c2ccccc2)cc1` (stereo not given), for which the TGI in [1], in assay [2], in [3], in assay [4], in assay [5] and in [6] was over 100 µM in each case. Besides, the TGI in assay [7] was 90.7 µM; in assay [8] it was over 100 µM; in assay [9], 59.1 µM; in [10] it was over 100 µM; in [11], over 100 µM; in assay [12], 92.3 µM. Besides, the TGI in [13], in assay [14], in [15] and in [16] was over 100 µM in each case.
In the case of `Cc1nc(-c2cc3ccccc3oc2=O)cs1`, the TGI in assay [1] was over 100 µM; in assay [2], 31 µM; in [3], over 100 µM; in assay [4], over 100 µM; in assay [5], over 100 µM; in assay [6] it was over 100 µM. Further, the TGI in [7], in assay [10], in [11], in [12], in assay [13] and in assay [14] was over 100 µM in each case. The TGI in assay [15] and in [16] was over 100 µM throughout.
As to `COC(=O)Nc1nc2ccc(NC(=O)c3ccc(I)cc3)cc2[nH]1`, the TGI in assay [1], in assay [2], in [3], in assay [4], in assay [5] and in assay [6] was over 100 µM throughout. Besides, the TGI in assay [7], in [8], in assay [9], in assay [10], in [11] and in assay [12] was over 100 µM each time. The TGI in [13], in assay [14], in assay [15] and in [16] was over 100 µM each time.
With `CCN(CC)C(=O)CCN1CC1`, the TGI in [1], in [2], in assay [3], in assay [4], in assay [5] and in [6] was over 10 µM each time. Also, the TGI in assay [7], in assay [8], in assay [9], in [10], in assay [11] and in assay [12] was over 10 µM each time. Further, the TGI in [13], in assay [14], in assay [15] and in assay [16] was over 10 µM in each case.
